Laboratory results as given in PMC11721939, “Novel tetrahydronaphthalen-1-yl-phenethyl ureas: synthesis and dual antibacterial-anticancer activities” (Journal of Enzyme Inhibition and Medicinal Chemistry, 2023).
Values after ≈ are worked out from the molar mass of the structure shown.

What was measured:
WST-8 cytotoxicity assay [1] = format: cell-based; settings: human, PCS-201-012 healthy primary dermal fibroblast cells, PCS-201-012 healthy fibroblast cells, WST-8, n = 4, read-out: Cytotoxic activity IC50
Description: (§1) The cells in culture were frequently sub-cultured, about 2–3 times weekly, until they reached a confluence of 80–90%. The experiments were organised into seven cell groups as follows: group I served as the control, while groups II through VII were pre-treated with varying dosages of the synthesised ureas (ranging from 12.5 µM to 500 µM). The cytotoxic potential of these ureas was assessed in vitro using the Cell Viability Detection Kit-8 (CVDK-8, Ecotech Biotechnology, Erzurum, Turkey), a method based on WST-8 quantification for human primary dermal fibroblasts and cervical cancer cells. Healthy fibroblast, HeLa, and SH-SY5Y cells were allocated in 96-well plates, with each well containing 5 × 10^3 cells in 100 µL of DMEM:F12 (supplemented with 1% penicillin/streptomycin and 10% FBS). After an overnight growth, these cells were exposed to specified concentrations of the synthesised ureas for a duration of 48 h at 37 °C in a 5% CO2 atmosphere. Cisplatin acted as the positive control with concentration gradients of 0–250 µM for HeLa cells and 0–20 µM for the SH-SY5Y cells. Post incubation, in sterile, dimly lit conditions, 10% WST-8 solution was added to every well and further incubated at 37 °C within 5% CO2 for another 3–4 h. The optical density of the 96-well plate was gauged at a 450 nm wavelength using a spectrophotometer (BioTek, EPOCH, Santa Clara, CA). The control group’s main purpose was to measure the absorbance of just the cells and the growth medium.

SH-SY5Y cells = test: WST-8 cytotoxicity assay; format: cell-based, human; settings: for IC50: Homo sapiens, SH-SY5Y, 48 h, WST-8, n = 4, read-out: Cytotoxic activity IC50; for SI value (SH-SY5Y cells): IC50 PCS-201-012 fibroblasts / IC50 SH-SY5Y, n = 4
Description: as §1

HeLa cells = test: WST-8 cytotoxicity assay; format: cell-based, human; settings: for IC50: Homo sapiens, HeLa cells, 48 h, WST-8, n = 4, read-out: Cytotoxic activity IC50; for SI value (HeLa cells): IC50 PCS-201-012 fibroblasts / IC50 HeLa, n = 4
Description: as §1

WST-8 cytotoxicity assay [2] = format: cell-based, human; settings: human, SH-SY5Y cells, SH-SY5Y, 48 h, read-out: Cell viability
Description: as §1

[3] = system: all tested bacterial strains; test: Antibacterial activity (MIC) summarised over all tested bacterial strains; format: cell-based; settings: against the studied bacteria
Description: (§2) The bacteria employed for evaluation included Acinetobacter baumannii ATCC 1605, Enterococcus faecalis ATCC 49452, Pseudomonas aeruginosa ATCC 9027, and Staphylococcus aureus MRSA ATCC 43300. These strains were sourced from the Molecular Biology and Genetics Laboratory at Erzurum Technical University. They were immersed in Mueller-Hinton Broth (MHB) and then incubated at a temperature of 37 °C for a duration of 16–24 h.
Bacteria were adjusted to a McFarland standardisation of 0.5, equivalent to a cell density of 1.5 × 10^8/ml, and were then introduced into MHB. Subsequently, a 100 μl volume of this bacterial mixture was spread onto Mueller-Hinton agar plates. Sterile empty discs were then treated with the formulated ureas at concentrations of 1000, 500, and 250 µM. Oflaxin ([…]) and netilmicin ([…]) were used as positive controls, while DMSO served as the negative control. The plates were then placed in an incubator at 37 °C for a period ranging from 24 to 72 h, depending on the optimal conditions. Post incubation, the diameter of the inhibition zones was gauged to determine the antibacterial efficacy. […]
The synthesised ureas’ minimum inhibitory concentrations (MICs) against the bacterial samples were ascertained using the microdilution broth technique. […] Post incubation, the growth of the bacteria was assessed at 600 nm using the Fluoroskan Ascent® FL. […]

[4] = system: Acinetobacter baumannii ATCC 1605; test: Disc diffusion method; format: cell-based; settings: for zone of inhibition at 250 µM: ATCC1605, 250 µM; for zone of inhibition at 250 µM / zone of inhibition at 500 µM / zone of inhibition at 1000 µM: read-out: Disc diffusion test, inhibitory zone diameter; for zone of inhibition at 500 µM: ATCC1605, 500 µM; for zone of inhibition at 1000 µM: ATCC1605, 1000 µM
Description: as §2
(§3) Bacteria were adjusted to a McFarland standardisation of 0.5, equivalent to a cell density of 1.5 × 10^8/ml, and were then introduced into MHB. Subsequently, a 100 μl volume of this bacterial mixture was spread onto Mueller-Hinton agar plates. Sterile empty discs were then treated with the formulated ureas at concentrations of 1000, 500, and 250 µM. Oflaxin ([…]) and netilmicin ([…]) were used as positive controls, while DMSO served as the negative control. The plates were then placed in an incubator at 37 °C for a period ranging from 24 to 72 h, depending on the optimal conditions. Post incubation, the diameter of the inhibition zones was gauged to determine the antibacterial efficacy. This entire process was replicated three times.

[5] = system: Pseudomonas aeruginosa ATCC 9027; test: Disc diffusion method; format: cell-based; settings: for zone of inhibition at 250 µM: ATCC9027, 250 µM; for zone of inhibition at 250 µM / zone of inhibition at 500 µM / zone of inhibition at 1000 µM: read-out: Disc diffusion test, inhibitory zone diameter; for zone of inhibition at 500 µM: ATCC9027, 500 µM; for zone of inhibition at 1000 µM: ATCC9027, 1000 µM
Description: as §2, §3

[6] = system: Staphylococcus aureus MRSA ATCC 43300; test: Disc diffusion method; format: cell-based; settings: for Standard antibiotic disc, inhibitory zone diameter: Staphylococcus aureus MRSA; for zone of inhibition at 250 µM / zone of inhibition at 500 µM / zone of inhibition at 1000 µM: Staphylococcus aureus, read-out: Disc diffusion test, inhibitory zone diameter
Description: as §2, §3

[7] = system: Enterococcus faecalis ATCC 49452; test: Disc diffusion method; format: cell-based; settings: for zone of inhibition at 500 µM: ATCC49452, 500 µM; for zone of inhibition at 500 µM / zone of inhibition at 1000 µM: read-out: Disc diffusion test, inhibitory zone diameter; for zone of inhibition at 1000 µM: ATCC49452, 1000 µM
Description: as §2, §3

[8] = system: Acinetobacter baumannii ATCC 1605; test: Micro-well dilution assay (MIC); format: cell-based; settings: for MIC: ATCC1605
Description: as §2
(§4) The synthesised ureas’ minimum inhibitory concentrations (MICs) against the bacterial samples were ascertained using the microdilution broth technique. Utilising a method of twofold serial dilutions, the ureas were diluted to concentrations spanning from […]. The bacterial turbidity was set to match the 0.5 McFarland standard. In the 96-well plates, each well received 100 μl of MHB and 5 μl of the bacteria being tested. For the negative control, 195 μl of MHB and 5 μl of the bacterial sample were added. The plate was then covered with a sterile seal and allowed to incubate for 24 h at a temperature of 37 °C. Post incubation, the growth of the bacteria was assessed at 600 nm using the Fluoroskan Ascent® FL. The MIC represented the smallest amount of the chemical that effectively halted bacterial growth. This procedure was conducted three times.

[9] = system: Pseudomonas aeruginosa ATCC 9027; test: Micro-well dilution assay (MIC); format: cell-based; settings: for MIC: ATCC9027
Description: as §2, §4

[10] = system: Staphylococcus aureus MRSA ATCC 43300; test: Micro-well dilution assay (MIC); format: cell-based
Description: as §2, §4

[11] = system: Enterococcus faecalis ATCC 49452; test: Micro-well dilution assay (MIC); format: cell-based; settings: for MIC: ATCC49452
Description: as §2, §4

Row | SMILES | IC50 at 48 h (WST-8 cytotoxicity assay [1]) | IC50 (SH-SY5Y cells) | IC50 (HeLa cells) | MIC of standard antibiotics [8] | MIC of standard antibiotics [9] | MIC of standard antibiotics [10] | MIC of standard antibiotics [11] | SI value (SH-SY5Y cells) (SH-SY5Y cells) | SI value (HeLa cells) (HeLa cells) | melting point | zone of inhibition at 250 µM [4] | zone of inhibition at 500 µM [4] | zone of inhibition at 1000 µM [4] | zone of inhibition at 250 µM [5] | zone of inhibition at 500 µM [5] | zone of inhibition at 1000 µM [5] | zone of inhibition at 250 µM [6] | zone of inhibition at 500 µM [6] | zone of inhibition at 1000 µM [6] | zone of inhibition at 500 µM [7] | other results
1 | COc1cccc2c1CCCC2NC(=O)NCCc1ccccc1 (centres unmarked) [Compound 14, 1-(5-methoxy-1,2,3,4-tetrahydronaphthalen-1-yl)-3-phenethylurea] | 7.9 µM | 9.7 µM | 2.6 µM |  |  |  |  |  |  |  |  |  |  |  |  |  |  |  |  |  | viability at 48 h, 12.5 µM (WST-8 cytotoxicity assay [2]; 12.5 µM): 25.5%; viability at 48 h, 25 µM (WST-8 cytotoxicity assay [2]; 25 µM): 8.4%; viability at 48 h, 50 µM (WST-8 cytotoxicity assay [2]; 50 µM): 4.68%; viability at 48 h, 100 µM (WST-8 cytotoxicity assay [2]; 100 µM): 4.87%; viability at 48 h, 300 µM (WST-8 cytotoxicity assay [2]; 300 µM): 3.77%; viability at 48 h, 500 µM (WST-8 cytotoxicity assay [2]; 500 µM): 1.67%; Antibacterial properties (in words) [3]: did not display any antibacterial properties
2 | CCN[C@@H]1C[C@H](N)[C@@H](O[C@H]2OC(CN)=CC[C@H]2N)[C@H](O)[C@H]1O[C@H]1OC[C@](C)(O)[C@H](NC)[C@H]1O [NET30, netilmycin, reference compound] |  |  |  | 4 µg/mL | 4 µg/mL | 0.8 µg/mL | 32 µg/mL |  |  |  |  |  |  |  |  |  |  |  |  |  | Standard antibiotic disc, inhibitory zone diameter ([4]; 30 μg/disc): 13 mm; Standard antibiotic disc, inhibitory zone diameter ([5]; 30 μg/disc): 16 mm; Standard antibiotic disc, inhibitory zone diameter ([6]; 30 μg/disc): 21 mm; Standard antibiotic disc, inhibitory zone diameter ([7]; 30 μg/disc): 9 mm
3 | CC1COc2c(N3CCN(C)CC3)c(F)cc3c(=O)c(C(=O)O)cn1c23 (centres unmarked) [OFX, ofloxacin, reference compound] |  |  |  | 0.5 µg/mL | 11.4 µg/mL | 1.2 µg/mL | 2.5 µg/mL |  |  |  |  |  |  |  |  |  |  |  |  |  | Standard antibiotic disc, inhibitory zone diameter ([4]; 10 μg/disc): 16 mm; Standard antibiotic disc, inhibitory zone diameter ([5]; 10 μg/disc): 23 mm; Standard antibiotic disc, inhibitory zone diameter ([6]; 10 μg/disc): 24 mm; Standard antibiotic disc, inhibitory zone diameter ([7]; 10 μg/disc): 11 mm
4 | COc1ccc(CCNC(=O)NC2CCCc3c(OC)cccc32)cc1OC (centres unmarked) [Compound 17, 1-(3,4-Dimethoxyphenethyl)-3-(5-methoxy-1,2,3,4-tetrahydronaphthalen-1-yl)urea] | 380 µM | 9.7 µM | 251 µM |  |  |  |  | 39.08 | 1.51 | 168 to 170 °C | 6 mm | 8 mm | 15 mm | 7 mm | 10 mm | 10 mm | 8 mm | 13 mm | 14 mm | 7 mm | zone of inhibition at 1000 µM [7]: 10 mm; MIC [8]: 7.81 µM (≈ 3 µg/mL); MIC [9]: 7.81 µM (≈ 3 µg/mL); MIC [10]: 7.81 µM (≈ 3 µg/mL); MIC [11]: 0.97 µM (≈ 0.373 µg/mL)
5 | COc1cccc(CCNC(=O)NC2CCCc3c(OC)cccc32)c1 (centres unmarked) [Compound 16, 1-(5-Methoxy-1,2,3,4-tetrahydronaphthalen-1-yl)-3-(3-methoxyphenethyl)urea] | > 500 µM | 19.1 µM | 32.4 µM |  |  |  |  | 26.10 | 15.4 | 155 to 157 °C | 5 mm | 10 mm | 13 mm | 7 mm | 8 mm | 10 mm | 5 mm | 6 mm | 13 mm | 6 mm | zone of inhibition at 1000 µM [7]: 7 mm; MIC [8]: 7.81 µM (≈ 2.77 µg/mL); MIC [9]: 7.81 µM (≈ 2.77 µg/mL); MIC [10]: 7.81 µM (≈ 2.77 µg/mL); MIC [11]: 3.9 µM (≈ 1.38 µg/mL)
